From patent publication US20260028384A1, “USE OF IL-2 VARIANT FOR TREATING KIDNEY TRANSPLANT REJECTION” (Visterra, Inc., priority 2024, published 2026)
Entries after “also recorded” stand apart in the source; their conditions may differ.

Columns and labels:
kidney allograft [1] = assay: Kidney allograft survival after transplant and discontinuation of treatment, rapamycin discontinued on Day 30 (Example 3); format: in vivo, Rhesus monkeys
Description: However, rapamycin administration was discontinued on Day 30 post-transplant. A control group was only administered the daily rapamycin.

kidney allograft [2] = test system: kidney allograft
Description: The effect of an exemplary alpha-biased IL-2-Fc fusion protein (SEQ ID NO: 27) on prolonged kidney allograft survival following transplant was studied in naïve Rhesus monkeys, as outlined in FIG. 1B. For the kidney transplant, animals were paired with ABO-compatible donors and mismatched for MHC haplotype of class I loci while allowing 1 or 2 MHC II haplotype matching. This degree of MHC mismatch is known to elicit a robust graft rejection and sensitization.
The alpha-biased IL-2-Fc fusion protein was administered subcutaneously at a dose of 50 μg/kg both pre- and post-transplant on Days −6, 1, 15, and 29. The kidney transplant was performed on Day 0, and rapamycin was administered daily by intramuscular injection, targeting a trough concentration of approximately 8-12 ng/mL. Rapamycin administration was discontinued on Day […] post-transplant. As a control, five monkeys were only administered the daily rapamycin. Kidney allograft biopsies were performed at 1-month and 3-months post-transplant. Blood samples were collected regularly, and samples were either analyzed at ambient temperature or frozen and stored.

[3] = test system: regulatory T cells (Tregs); assay: Immunomodulatory effect (Treg expansion) in naïve Rhesus monkeys, flow cytometry; format: in vivo
Description: An exemplary alpha-biased IL-2 variant fused to an Fc domain of human IgG1 was prepared with a full length sequence according to SEQ ID NO: 27. The immunomodulatory effect of the exemplary alpha-biased IL-2-Fc fusion protein was assessed in naïve Rhesus monkeys by a study outlined in FIG. 1A. […] Rapamycin was also administered daily from Day 0 by intramuscular injections, targeting a trough level of approximately 8-12 ng/mL. Treg populations (CD4^+CD25^+FoxP3^+ and CD4^+CD25^+CD127^lo) and other immune cell populations including CD3^+/CD8^+ cytotoxic T cells (CTL) were analyzed using flow cytometry.

| Compound | time to termination post-transplant (increases in sCR and BUN or excessive weight loss) (kidney allograft [1]; control group, daily rapamycin only, FIG. 10B) | survival post-transplant, one Rhesus monkey (kidney allograft [2]; 50 μg/kg plus daily rapamycin until Day 180, longest surviving monkey) | kidney graft survival, at least three of four Rhesus monkeys (kidney allograft [2]; 50 μg/kg plus daily rapamycin, at least three of four monkeys) | time creatinine and BUN / transplanted kidney stable post-transplant, some cases (kidney allograft [2]; 50 μg/kg s.c. Days −6, 1, 15, 29 plus daily rapamycin until Day 180, some cases) | time creatinine and blood urea nitrogen (BUN) stable post-transplant, most cases (kidney allograft [2]; 50 μg/kg s.c. Days −6, 1, 15, 29 plus daily rapamycin, most cases, FIGS. 4A, 4B) | Tregs (FoxP3+ CD4+ and CD127lo CD4+) in PBMCs (kidney allograft [2]; after administration, post-transplant, FIG. 8) | CD20+ B cells (kidney allograft [2]; after kidney transplant, FIG. 5) | histopathology of monkey terminated early for excessive body weight loss (kidney allograft [2]; one monkey of the fusion protein group) | blood chemistry parameters (ALT, ALP, GGT, bilirubin, protein, albumin, globulin, cholesterol, phosphate, calcium, glucose, sodium, potassium, chloride) (kidney allograft [2]; rhesus monkey, in vivo) | hematology parameters (hemoglobin, hematocrit, blood cell counts) (kidney allograft [2]; rhesus monkey, in vivo) | time sCR and BUN levels stable post-transplant, most cases (kidney allograft [1]; 50 μg/kg s.c. Days −6, 1, 15, 29 plus daily rapamycin until Day 30, most cases, FIG. 10A) | time sCR and BUN levels stable post-transplant, some cases (kidney allograft [1]; rapamycin discontinued Day 30, some cases) | time sCR and BUN levels stable following complete withdrawal of immunosuppressive drugs (kidney allograft [1]; some cases) | percent of Tregs (CD4+CD25+FoxP3+) ([3]; 5-7 days after administration, increased from 6.21% pre-treatment, s.c. 50 or 100 μg/kg with daily rapamycin, FIG. 2A) | tachyphylaxis of Treg number and percent on repeated dosing ([3]; FIGS. 3A and 3B, after each dose) | cytotoxic T cells (CTLs) during the increase in Tregs ([3]; over the course of treatment) | ratio of Tregs:CD8 cells ([3]; over the course of treatment, 50 or 100 μg/kg, FIG. 2B) | absolute number of Tregs ([3]; over the course of treatment, s.c. Days 0, 14, 28 at 50 or 100 μg/kg, daily rapamycin, FIG. 2B) |
| --- | --- | --- | --- | --- | --- | --- | --- | --- | --- | --- | --- | --- | --- | --- | --- | --- | --- | --- |
| CO[C@H]1C[C@@H]2CC[C@@H](C)[C@@](O)(O2)C(=O)C(=O)N2CCCC[C@H]2C(=O)O[C@H]([C@H](C)C[C@@H]2CC[C@@H](O)[C@H](OC)C2)CC(=O)[C@H](C)/C=C(\C)[C@@H](O)[C@@H](OC)C(=O)[C@H](C)C[C@H](C)/C=C/C=C/C=C/1C [rapamycin, reference compound] | less than 30 days |  |  |  |  |  |  |  |  |  |  |  |  |  |  |  |  |  |
| alpha-biased IL-2-Fc fusion protein: IL2 Variant (H16L/V69A/Q74P/C125S) fused to IgG1 Fc (N297G) allotype m3; full length sequence SEQ ID NO: 27 |  | 235 days | over 50 days | over 235 days | over 50 days | increase in both percent and number | decrease | did not indicate kidney rejection | fell within the expected range | normally fell within their expected ranges | at least 40 days | ≥ 110 days | up to 82 days | 38.5% | without signs of tachyphylaxis | did not coincide with an increase | significantly increased in a dose-dependent manner | significantly increased in a dose-dependent manner; also recorded: statistically significant and dose dependent |
